Several values for one entry are separate records, joined by “and”; a condition that tells them apart may be missing. Identical values can stand only once. Inconclusive results and toxic doses are left out.
System: BDF1 mice, P388 leukemia ip, median survival T/C
Assay: NCI In Vivo Anticancer Drug Screen. Data for tumor model P388 Leukemia (intraperitoneal) in B6D2F1 (BDF1) mice
Settings: endpoint: median survival time, higher = longer survival
Method in brief: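 T/C = treated-group survival ÷ vehicle-control survival; tumour transplanted into mice before dosing.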

[1] = dose: 50.0 mg/kg/injection, schedule: Q01DX009 (ip), vehicle: saline with Tween-80
[2] = dose: 100.0 mg/kg/injection, schedule: Q01DX009 (ip), vehicle: saline with Tween-80
[3] = dose: 200.0 mg/kg/injection, schedule: Q01DX009 (ip), vehicle: saline with Tween-80
[4] = dose: 20.0 mg/kg/injection, schedule: Q01DX009 (ip), vehicle: saline with Tween-80
[5] = dose: 400.0 mg/kg/injection, schedule: Q01DX009 (ip), vehicle: saline with Tween-80
[6] = dose: 100.0 mg/kg/injection, schedule: Q04DX003 (ip), vehicle: Klucel (hydroxypropylcellulose) (HPC)
[7] = dose: 200.0 mg/kg/injection, schedule: Q04DX003 (ip), vehicle: Klucel (hydroxypropylcellulose) (HPC)
[8] = dose: 400.0 mg/kg/injection, schedule: Q04DX003 (ip), vehicle: Klucel (hydroxypropylcellulose) (HPC)
[9] = dose: 100.0 mg/kg/injection, schedule: Q04DX003 (ip), vehicle: saline
[10] = dose: 200.0 mg/kg/injection, schedule: Q04DX003 (ip), vehicle: saline
[11] = dose: 400.0 mg/kg/injection, schedule: Q04DX003 (ip), vehicle: saline
[12] = dose: 100.0 mg/kg/injection, schedule: Q01DX009 (ip), vehicle: saline

SMILES: CCNCc1cc(Nc2cc(C)nc(/N=C(\N)Nc3ccc(Cl)c(Cl)c3)n2)ccc1OC
- T/C (dose: 6.25 mg/kg/injection, schedule: Q01DX009 (ip), vehicle: Klucel (hydroxypropylcellulose) (HPC)): 90 % of control
- T/C (dose: 8.75 mg/kg/injection, schedule: Q04DX003 (ip), vehicle: Klucel (hydroxypropylcellulose) (HPC)): 112 % of control
- T/C (dose: 12.5 mg/kg/injection, schedule: Q01DX009 (ip), vehicle: Klucel (hydroxypropylcellulose) (HPC)): 100 % of control
- T/C (dose: 17.5 mg/kg/injection, schedule: Q04DX003 (ip), vehicle: Klucel (hydroxypropylcellulose) (HPC)): 108 % of control
- T/C (dose: 25.0 mg/kg/injection, schedule: Q01DX009 (ip), vehicle: Klucel (hydroxypropylcellulose) (HPC)): 90 % of control
- T/C (dose: 33.0 mg/kg/injection, schedule: Q04DX003 (ip), vehicle: Klucel (hydroxypropylcellulose) (HPC)): 116 % of control
- T/C (dose: 35.0 mg/kg/injection, schedule: Q04DX003 (ip), vehicle: Klucel (hydroxypropylcellulose) (HPC)): 108 % of control
- T/C (dose: 50.0 mg/kg/injection, schedule: Q04DX003 (ip), vehicle: Klucel (hydroxypropylcellulose) (HPC)): 108 % of control
- T/C (dose: 75.0 mg/kg/injection, schedule: Q04DX003 (ip), vehicle: Klucel (hydroxypropylcellulose) (HPC)): 108 % of control
- T/C (dose: 80.0 mg/kg/injection, schedule: Q04DX003 (ip), vehicle: Klucel (hydroxypropylcellulose) (HPC)): 109 % of control

SMILES: COc1ccc(N=NNc2ccc(OC)cc2)cc1
- T/C (dose: 25.0 mg/kg/injection, schedule: Q01DX009 (ip), vehicle: saline with Tween-80): 154 % of control
- T/C (dose: 37.5 mg/kg/injection, schedule: Q01DX009 (ip), vehicle: saline with Tween-80): 155 % of control and 166 % of control

SMILES: CC[C@H]1CN2CCc3cc(OC)c(OC)cc3[C@@H]2C[C@@H]1C[C@H]1NCCc2c1[nH]c1ccc(OC)cc21
- T/C (dose: 16.0 mg/kg/injection, schedule: Q04DX003 (ip), vehicle: saline): 183 % of control
- T/C (dose: 18.0 mg/kg/injection, schedule: Q04DX003 (ip), vehicle: acid diluted with saline): 166 % of control
- T/C (dose: 30.0 mg/kg/injection, schedule: Q04DX003 (ip), vehicle: acid diluted with saline): 150 % of control
- T/C (dose: 32.0 mg/kg/injection, schedule: Q04DX003 (ip), vehicle: saline): 186 % of control
- T/C (dose: 64.0 mg/kg/injection, schedule: Q04DX003 (ip), vehicle: saline): 102 % of control

SMILES: COc1cccc(CCCC(=O)C(C)S(C)=O)c1 (configuration not stated)
- T/C [1]: 112 % of control
- T/C [2]: 101 % of control
- T/C [3]: 110 % of control

SMILES: CCSc1ncnc2c1ncn2C1OC(CO)C(O)C1O (configuration not stated)
- T/C [1]: 95 % of control
- T/C [2]: 117 % of control
- T/C [3]: 91 % of control

SMILES: CCCCCCC(=O)/C=C/c1ccc(OC)cc1
- T/C [1]: 94 % of control
- T/C [2]: 103 % of control
- T/C [3]: 90 % of control

SMILES: FC(F)(F)c1cc(NC(=S)N2c3ccccc3-n3cccc3C2c2cccnc2)cc(C(F)(F)F)c1 (configuration not stated)
- T/C (dose: 50.0 mg/kg/injection, schedule: Q01DX009 (ip), vehicle: Klucel (hydroxypropylcellulose) (HPC)): 97 % of control
- T/C (dose: 100.0 mg/kg/injection, schedule: Q01DX009 (ip), vehicle: Klucel (hydroxypropylcellulose) (HPC)): 89 % of control
- T/C (dose: 200.0 mg/kg/injection, schedule: Q01DX009 (ip), vehicle: Klucel (hydroxypropylcellulose) (HPC)): 91 % of control

SMILES: O=C(/C=C/c1ccc2c(c1)OCO2)c1ccc(Cl)cc1
- T/C (dose: 50.0 mg/kg/injection, schedule: Q04DX003 (ip), vehicle: saline with Tween-80): 100 % of control
- T/C (dose: 100.0 mg/kg/injection, schedule: Q04DX003 (ip), vehicle: saline with Tween-80): 100 % of control
- T/C (dose: 200.0 mg/kg/injection, schedule: Q04DX003 (ip), vehicle: saline with Tween-80): 100 % of control

SMILES: O=C1OP2(c3ccccc3)(OC(=O)c3ccccc32)c2ccccc21
- T/C [1]: 91 % of control
- T/C [2]: 96 % of control

SMILES: [Cl][Hg][Cl].c1cnccn1
- T/C (dose: 0.25 mg/kg/injection, schedule: Q01DX009 (ip), vehicle: saline with Tween-80): 104 % of control
- T/C (dose: 0.5 mg/kg/injection, schedule: Q01DX009 (ip), vehicle: saline with Tween-80): 96 % of control and 109 % of control
- T/C (dose: 2.0 mg/kg/injection, schedule: Q04DX003 (ip), vehicle: saline with Tween-80): 95 % of control and 100 % of control
- T/C (dose: 4.0 mg/kg/injection, schedule: Q01DX009 (ip), vehicle: saline with Tween-80): 96 % of control
- T/C (dose: 4.0 mg/kg/injection, schedule: Q04DX003 (ip), vehicle: saline with Tween-80): 95 % of control and 96 % of control
- T/C (dose: 5.0 mg/kg/injection, schedule: Q04DX003 (ip), vehicle: saline with Tween-80): 116 % of control
- T/C (dose: 8.0 mg/kg/injection, schedule: Q04DX003 (ip), vehicle: saline with Tween-80): 111 % of control and 119 % of control

SMILES: CC(=O)OCC1OC(N=[N+]=[N-])C(OC(C)=O)C(OC(C)=O)C1OC(C)=O (configuration not stated)
- T/C [1]: 93 % of control
- T/C [2]: 108 % of control
- T/C [3]: 99 % of control

SMILES: C=C1C(=O)OC2CC(C)C3C=CC(=O)C3(C)C(O)C12 (configuration not stated)
- T/C (dose: 5.0 mg/kg/injection, schedule: Q01DX009 (ip), vehicle: saline with Tween-80): 113 % of control
- T/C (dose: 10.0 mg/kg/injection, schedule: Q01DX009 (ip), vehicle: saline with Tween-80): 112 % of control
- T/C [4]: 115 % of control

SMILES: CCC(C)NC(=S)N/N=C\C=N/NC(=S)NC(C)CC (configuration not stated)
- T/C (dose: 75.0 mg/kg/injection, schedule: Q01DX009 (ip), vehicle: saline with Tween-80): 99 % of control
- T/C (dose: 150.0 mg/kg/injection, schedule: Q01DX009 (ip), vehicle: saline with Tween-80): 92 % of control
- T/C (dose: 300.0 mg/kg/injection, schedule: Q01DX009 (ip), vehicle: saline with Tween-80): 103 % of control

SMILES: O=S(=O)(Nc1ccc(-c2ccccc2)cc1)c1ccccc1
- T/C [1]: 108 % of control
- T/C [2]: 101 % of control
- T/C [3]: 101 % of control
- T/C [5]: 106 % of control

SMILES: C=C1CCN2CCCC12 (configuration not stated)
- T/C (dose: 20.0 mg/kg/injection, schedule: Q01DX010 (ip), vehicle: carboxymethylcellulose (CMC)): 110 % of control
- T/C (dose: 40.0 mg/kg/injection, schedule: Q01DX010 (ip), vehicle: carboxymethylcellulose (CMC)): 100 % of control
- T/C (dose: 80.0 mg/kg/injection, schedule: Q01DX010 (ip), vehicle: carboxymethylcellulose (CMC)): 110 % of control

SMILES: CN(C)C(=S)Sc1ccc([N+](=O)[O-])cc1[N+](=O)[O-]
- T/C (dose: 100.0 mg/kg/injection, schedule: Q01DX001 (ip), vehicle: Klucel (hydroxypropylcellulose) (HPC)): 100 % of control
- T/C [6]: 100 % of control
- T/C (dose: 200.0 mg/kg/injection, schedule: Q01DX001 (ip), vehicle: Klucel (hydroxypropylcellulose) (HPC)): 100 % of control
- T/C [7]: 104 % of control
- T/C (dose: 400.0 mg/kg/injection, schedule: Q01DX001 (ip), vehicle: Klucel (hydroxypropylcellulose) (HPC)): 100 % of control
- T/C [8]: 108 % of control

SMILES: O=C(Nc1cccc(Br)c1)N1c2ccccc2SC12CCCC2
- T/C [1]: 89 % of control
- T/C [2]: 97 % of control
- T/C [3]: 106 % of control

SMILES: COC(=O)N1c2ccc(OC)cc2C=CC1C#N (configuration not stated)
- T/C [2]: 100 % of control
- T/C [3]: 100 % of control
- T/C [5]: 100 % of control

SMILES: CC(C)(CO)Nc1ccccc1
- T/C [9]: 110 % of control
- T/C [10]: 100 % of control
- T/C [11]: 100 % of control

SMILES: COc1ccccc1CC(C)N (configuration not stated)
- T/C [4]: 87 % of control
- T/C (dose: 80.0 mg/kg/injection, schedule: Q01DX009 (ip), vehicle: saline with Tween-80): 91 % of control

SMILES: S=C(S)N1CCOCC1
- T/C [12]: 91 % of control
- T/C [9]: 100 % of control
- T/C (dose: 200.0 mg/kg/injection, schedule: Q01DX009 (ip), vehicle: saline): 100 % of control
- T/C [10]: 95 % of control
- T/C (dose: 400.0 mg/kg/injection, schedule: Q01DX009 (ip), vehicle: saline): 95 % of control
- T/C [11]: 86 % of control

SMILES: CCCCC/C=C/c1c(C)[nH]c2ccccc2c1=O
- T/C [6]: 95 % of control
- T/C [7]: 95 % of control
- T/C [8]: 113 % of control

SMILES: O=C(Nc1ccc(Br)cc1)c1cc(Br)ccc1O
- T/C (dose: 50.0 mg/kg/injection, schedule: Q01DX010 (ip), vehicle: steriod suspending solution): 104 % of control
- T/C (dose: 100.0 mg/kg/injection, schedule: Q01DX010 (ip), vehicle: steriod suspending solution): 100 % of control
- T/C (dose: 200.0 mg/kg/injection, schedule: Q01DX010 (ip), vehicle: steriod suspending solution): 100 % of control
- T/C (dose: 400.0 mg/kg/injection, schedule: Q01DX010 (ip), vehicle: steriod suspending solution): 109 % of control

SMILES: C#CC(C)OCC1CO1 (configuration not stated)
- T/C (dose: 50.0 mg/kg/injection, schedule: Q01DX009 (ip), vehicle: saline): 91 % of control
- T/C (dose: 50.0 mg/kg/injection, schedule: Q04DX003 (ip), vehicle: saline): 108 % of control
- T/C [12]: 95 % of control
- T/C [9]: 91 % of control
- T/C [10]: 108 % of control

— PubChem BioAssay AID328 (DTP/NCI, 2004)
